Results from US20120322819A1, “COMPOUND CONTAINING A NOVEL 4-ALKOXYPYRIMIDINE STRUCTURE AND MEDICINE CONTAINING SAME” (KOWA COMPANY, LTD., priority 2010, published 2012).

molecular target: T1, human PPARγ2 (Homo sapiens, UniProt P37231); assay: PPARγ activation activity, Gal4-PPARγ2 LBD chimera luciferase transfection assay in COST cells; format: cell-based; details: Gal4 (aa 1-147)/human PPARγ2 LBD (aa 182-505) chimera, luciferase reporter, 16 hours, rosiglitazone (3 to 10 μmol/L) = 100%, read-out: EC50 (50% effective concentration, PPARγ activation)
T1 construct: the amino acids 182 to 505 of human PPARγ2; expressed in transfected cells; host or cells: COST cells (so in the source)
T1 sequence (P37231 182-505): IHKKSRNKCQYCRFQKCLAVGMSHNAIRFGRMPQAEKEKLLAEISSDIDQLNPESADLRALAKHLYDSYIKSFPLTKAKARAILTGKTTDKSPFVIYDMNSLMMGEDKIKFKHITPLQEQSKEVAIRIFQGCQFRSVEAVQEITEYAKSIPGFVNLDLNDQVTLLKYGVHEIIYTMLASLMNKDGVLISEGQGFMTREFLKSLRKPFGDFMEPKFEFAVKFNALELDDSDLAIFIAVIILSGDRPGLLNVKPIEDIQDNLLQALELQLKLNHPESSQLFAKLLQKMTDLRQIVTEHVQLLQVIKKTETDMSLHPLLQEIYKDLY
Procedure: PPARγ Activation Activity
The agonistic activity of the compounds of the invention on PPARγ was measured based on the transfection assay using COST cells (DS Pharma Biomedical Co., Ltd., Osaka, Japan), which are the cell line derived from the kidney of the African green monkey. COST cells were cultured under 5% CO2 concentration, and DMEM medium containing 10% fetal bovine serum, glutamic acid, and antibiotics was used as a medium.
As an expression vector, a chimera in which DNA binding domain of Ga14, which is a yeast transcription factor, and ligand binding domain of human PPARγ2 are fused, i.e., a fused product between the amino acids 1 to 147 of Gal4 transcription factor and the amino acids 182 to 505 of human PPARγ2, was used. Furthermore, as a reporter vector, a firefly luciferase containing five copies of Gal4 recognition sequence in the promoter region was used. Plasmid transfection to the cells was performed according to a method which uses jetPEI (trade name, manufactured by Funakoshi Co., Ltd., Tokyo, Japan). Furthermore, β-galactosidase expression vector was employed as an internal standard.
After the transfection of the cells, the medium was replaced with a DMEM medium (containing 1% serum) added with the test compound, and the cells were further cultured for 16 hours. After that, the luciferase activity and β-galactosidase activity in the cell lysis solution were measured.
For the present test, dimethylsulfoxide (DMSO) was used for dissolution and dilution of the test compounds, and during the cell treatment, the DMSO concentration in DMEM medium (containing 1% serum) was adjusted to 0.1%. As a positive compound, rosiglitazone (trade name, manufactured by ALEXIS Corporation, Switzerland) was used. The percentage (%) of the luciferase activity of the each test compound (1 to 30 μmol/L) was calculated when the luciferase activity of rosiglitazone (3 to 10 μmol/L) is 100% and the luciferase activity in the absence of the test compound is 0%. The 50% effective concentration of the test compound (EC50, 50% effect concentration) was calculated by using SAS Preclinical Package Ver 5.0 (trade name, manufactured by SAS institute Japan Co., Tokyo, Japan), which is a statistical analysis program.

Compared with `CCCCc1nc(C)nc(OCC(C)O)c1Cc1ccc(-c2ccccc2-c2noc(=O)[nH]2)cc1` (stereo not drawn) [Example 21, 3-{4′-{[4-butyl-6-(2-hydroxypropoxy)-2-methylpyrimidin-5-yl]methyl}-[1,1′-biphenyl]-2-yl}-1,2,4-oxadiazol-5(4H)-one], `CCCCc1nc(C)nc(OCC(OC)OC)c1Cc1ccc(-c2ccccc2-c2noc(=O)[nH]2)cc1` [Example 19, 3-{4′-{[4-butyl-6-(2,2-dimethoxyethoxy)-2-methylpyrimidin-5-yl]methyl}-[1,1′-biphenyl]-2-yl}-1,2,4-oxadiazol-5(4H)-one] is 2.2-fold higher in EC50: 400 nM for the first, 880 nM for the second.

`CCCCc1nc(C)nc(OCCCC(=O)NCC)c1Cc1ccc(-c2ccccc2-c2noc(=O)[nH]2)cc1` [Example 9, 4-{{6-butyl-2-methyl-5-{[2′-(5-oxo-4,5-dihydro-1,2,4-oxadiazol-3-yl)-[1,1′-biphenyl]-4-yl]methyl}pyrimidin-4-yl}oxy}-N-ethylbutanamide] and `CCCCc1nc(C)nc(OCC(N)=O)c1Cc1ccc(-c2ccccc2-c2noc(=O)[nH]2)cc1` [Example 3, 2-{{6-butyl-2-methyl-5-{[2′-(5-oxo-4,5-dihydro-1,2,4-oxadiazol-3-yl)-[1,1′-biphenyl]-4-yl]methyl}pyrimidin-4-yl}oxy}acetamide] are within 1.5-fold of each other in EC50: 2800 nM for the first, 2870 nM for the second.

Compared with `CCCCc1nc(C)nc(OCC2OCCO2)c1Cc1ccc(-c2ccccc2-c2noc(=O)[nH]2)cc1` [Example 24, 3-{4′-{{4-[(1,3-dioxolan-2-yl)methoxy]-6-butyl-2-methylpyrimidin-5-yl}methyl}-[1,1′-biphenyl]-2-yl}-1,2,4-oxadiazol-5(4H)-one], `CCCCc1nc(C)nc(OCC(=O)N2CCCC2)c1Cc1ccc(-c2ccccc2-c2noc(=O)[nH]2)cc1` [Example 29, 3-{4′-{{4-butyl-2-methyl-6-[2-oxo-2-(pyrrolidin-1-yl)ethoxy]pyrimidin-5-yl}methyl}-[1,1′-biphenyl]-2-yl}-1,2,4-oxadiazof-5 (4H)-one] is 1.5-fold higher in EC50: 1380 nM for the first, 2080 nM for the second.

Going from `CCCCc1nc(C)nc(OCCc2ccc(OCCOC)c(OC)c2)c1Cc1ccc(-c2ccccc2-c2noc(=O)[nH]2)cc1` [Example 36, 3-{4′-{{4-butyl-6-[3-methoxy-4-(2-methoxyethoxy)phenethoxy]-2-methylpyrimidin-5-yl}methyl}-[1,1′-biphenyl]-2-yl}-1,2,4-oxadiazol-5 (4H)-one] to `CCCCc1nc(C)nc(OCCOCCOC)c1Cc1ccc(-c2ccccc2-c2noc(=O)[nH]2)cc1` [Example 13, 3-{4′-{{4-butyl-6-[2-(2-methoxyethoxy)ethoxy]-2-methylpyrimidin-5-yl}methyl}-[1,1′-biphenyl]-2-yl}-1,2,4-oxadiazol-5(4H)-one], the EC50 rises from 630 nM to 1600 nM (2.5-fold). The first is the more potent here.

`CCCCc1nc(C)nc(OCc2nc(-c3ccc(C)cc3)oc2C)c1Cc1ccc(-c2ccccc2-c2noc(=O)[nH]2)cc1` [Example 32, 3-{4′-{{4-butyl-2-methyl-6-{[5-methyl-2-(p-tolyl)oxazol-4-yl]methoxy}pyrimidin-5-yl}methyl}-[1,1′-biphenyl]-2-yl}-1,2,4-oxadiazol-5(4H)-one] and `CCCCc1nc(C)nc(OCCOCc2ccccc2)c1Cc1ccc(-c2ccccc2-c2noc(=O)[nH]2)cc1` [Example 14, 3-{4′-{{4-[2-(benzyloxy)ethoxy]-6-butyl-2-methylpyrimidin-5-yl}methyl}-[1,1′-biphenyl]-2-yl}-1,2,4-oxadiazol-5(4H)-one] are within 1.5-fold of each other in EC50: 380 nM for the first, 290 nM for the second.

First: CCCc1nc2c(C)cc(-c3nc4ccccc4n3C)cc2n1Cc1ccc(-c2ccccc2C(=O)O)cc1 [telmisartan, reference compound]
Second: CCCCc1nc(C)nc(OCC(OCC)OCC)c1Cc1ccc(-c2ccccc2-c2noc(=O)[nH]2)cc1 [Example 20, 3-{4′-{[4-butyl-6-(2,2-diethoxyethoxy)-2-methylpyrimidin-5-yl]methyl}-[1,1′-biphenyl]-2-yl}-1,2,4-oxadiazol-5(4H)-one]
The EC50 of the first is higher: 1000 to 5000 nM for the first, 310 nM for the second. The second is the more potent here.
